# Substitutions are numbered along the chain they refer to.
# Assays:
# [1] = molecular target: T1, LonP1 C576S (Homo sapiens, UniProt P36776, C576S); experiment: Endpoint ATPase assay, LonP1 C576S; type: biochemical
# T1 construct: hexa-histidine (N); made in house; host or cells: Rosetta 2 E. coli
# T1 sequence (P36776 68-959 C576S): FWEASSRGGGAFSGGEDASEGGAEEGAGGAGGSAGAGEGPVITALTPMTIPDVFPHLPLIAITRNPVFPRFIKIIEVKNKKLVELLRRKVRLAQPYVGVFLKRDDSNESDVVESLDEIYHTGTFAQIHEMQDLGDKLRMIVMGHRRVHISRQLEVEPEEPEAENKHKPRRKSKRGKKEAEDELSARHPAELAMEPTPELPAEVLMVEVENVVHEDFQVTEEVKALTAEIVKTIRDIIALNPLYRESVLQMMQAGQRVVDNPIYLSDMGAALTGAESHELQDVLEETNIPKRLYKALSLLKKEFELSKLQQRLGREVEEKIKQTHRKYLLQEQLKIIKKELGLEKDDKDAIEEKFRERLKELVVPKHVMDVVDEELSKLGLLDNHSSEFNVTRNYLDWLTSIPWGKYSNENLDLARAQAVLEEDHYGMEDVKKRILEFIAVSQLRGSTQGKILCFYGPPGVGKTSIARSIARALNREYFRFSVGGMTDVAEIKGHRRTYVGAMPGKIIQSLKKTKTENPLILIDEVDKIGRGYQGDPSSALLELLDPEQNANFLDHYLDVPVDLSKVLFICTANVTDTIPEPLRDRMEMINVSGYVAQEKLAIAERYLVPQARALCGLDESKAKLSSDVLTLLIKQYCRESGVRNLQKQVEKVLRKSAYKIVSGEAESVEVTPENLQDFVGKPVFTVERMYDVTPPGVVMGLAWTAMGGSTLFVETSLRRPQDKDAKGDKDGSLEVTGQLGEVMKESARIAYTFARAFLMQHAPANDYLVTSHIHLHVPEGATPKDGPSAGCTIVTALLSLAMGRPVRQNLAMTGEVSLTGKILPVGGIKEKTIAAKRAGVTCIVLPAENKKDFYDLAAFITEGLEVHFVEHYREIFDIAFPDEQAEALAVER
# Experimental: (§1) Human mitochondrial LonP1 and mutants lacking the predicted mitochondrial targeting sequence were fused to an N-terminal hexa-histidine affinity tag, expressed in Rosetta 2 E. Coli, and purified using a nickel agarose column as previously described ([72]) and protein concentration and buffer exchange carried out using Amicon Ultra centrifugal filtration. LonP1 mutant constructs were obtained from the PCR-based QuikChange Site-Directed Mutagenesis Kit.
# (§2) ADP-Glo (Promega) assays were performed according to the manufacturer's protocols. Purified wild-type or mutant LonP1 (400 nM monomer), the 26S proteasome (3 nM), or no enzyme controls were preincubated in 96-well plates (60 min, 25 °C) with ten different concentrations of CDDO and its derivatives, TP-82, enoxolone (5 μM) or DMSO vehicle control in buffer (40 mM Tris-HCl (pH 7.5), 20 mM MgCl2, 0.1 mg/ml BSA and 5% DMSO). The 26S and 20S proteasome were also assayed at 0, 0.75, 1.5, 3, 6, and 12 nM in the absence of CDDO derivatives. […] Assay reagents were used to quench further ATPase activity and generate luminescence signals proportional to the concentration of ADP formed. Background (no enzyme control) luminescence values were subtracted, and resultant values were reported as a percentage of the no drug control (100%). […]
# [2] = molecular target: T2, LonP1 C637S (Homo sapiens, UniProt P36776, C637S); experiment: Endpoint ATPase assay, LonP1 C637S; type: biochemical
# T2 construct: hexa-histidine (N); made in house; host or cells: Rosetta 2 E. coli
# T2 sequence (P36776 68-959 C637S): T1 sequence (P36776 68-959 C576S) with S509C, C570S
# Experimental: as §1, §2
# [3] = end-point ATPase assay, N = 1, read-out: CDDO IC50
structure (smiles),measurement,setting,value
"CC1(C)CC[C@]2(C(=O)O)CC[C@]3(C)[C@H](C(=O)C=C4[C@@]5(C)C=C(C#N)C(=O)C(C)(C)[C@@H]5CC[C@]43C)[C@@H]2C1 [CDDO, 2-cyano-3,12-dioxooleana-1,9(11)-dien-28-oic acid]",Fold increase in inhibition compared with WT,[1],1.2
same,IC50,[1]; [3],11.9 µM
same,Fold increase in inhibition compared with WT,[2],4.7
same,IC50,[2]; [3],3 µM

# From article PMC8921294, “Inhibition of mitochondrial LonP1 protease by allosteric blockade of ATP binding and hydrolysis via CDDO and its derivatives” (The Journal of Biological Chemistry, 2022)
